In US8772290B2, “Alpha-arylmethoxyacrylate derivative, preparation method thereof, and pharmaceutical composition containing same” (Oscotech Inc., priority 2010, dated 2014):

Key:
[1] = test system: HIF; assay: Assay for inhibitory activity against HIF activity (HIF1 luciferase reporter cell line); format: cell-based, human; conditions: HEK293 HIF1 reporter cell line, 1% oxygen, 6 hours, luciferase activity 50% inhibited
Excerpt: In order to assay the compounds of the present invention for inhibitory activity against HIF activity, the HIF1 reporter plasmid (Panomics) that is designed to control the expression of luciferase by HIF was employed. The HIF1 reporter plasmid and the pTK-Hyg plasmid (Clontech), which carries a hygromycin resistant gene, were co-transfected into the HEK293 cell line (the Korean Cell Line Bank, KCLB No. 21573), derived from the human kidney, with the aid of Effectene transfection reagent (Qiagen). Then, the cells were cultured for 3 weeks on a medium containing 200 μg/mL hygromycin to select transformants resistant to hygromycin. The cell colonies derived from single cells were transferred to 24-well plates to secure a reporter cell line. The cells were seeded at a density of 4×10^4 cells/well into 96-well plates containing DMEM and incubated for 24 hours before treatment with the compounds of the present invention at a concentration of 25 μM, 5 μM, 1 μM, 200 nM, 40 nM, 8 nM, 1.6 nM, 320 pM, 64 pM, 12.8 pM, 2.56 pM, 512 fM, 102 fM, 20.4 fM, or an amount between any two concentrations above as shown in FIGS. 1A to 1C. Under 1% oxygen condition, the cells were incubated for 6 hours and then, the medium was removed. The cells were lyzed by incubation for 5 min with 100 μL of the mixture of Bright-Glo™ luciferase assay buffer and Bright-Glo™ luciferase assay substrate (Promega). The whole cell lysate was transferred to 96-well, white plates (PerkinElmer) and measured for luminescence using Victor™ 3 (PerkinElmer). From the luminescence measurements, IC50 (a concentration of the compound at which luciferase activity was 50% inhibited) was calculated using the GraphPad Prism™ 4 program. The results are summarized in Table 2 and illustrated in FIGS. 1A to 1C.

[2] = test system: tumor-induced angiogenesis (HCT116 cells); assay: Assay for inhibitory activity against in vivo tumor-induced angiogenesis (intravital microscopy); set-up: species or system BALB/c mice; conditions: 1 μmol in Matrigel with VEGF and HCT116 cells in abdominal window, four days, t-test p<0.01, FIGS. 4A and 4B
Protocol: The inhibitory activity of the compounds of the present invention against angiogenesis was examined in vivo using intravital microscopy. Titanium windows (diameter 19 mm, inner diameter 14 mm, thickness 0.7 mm) were implanted in the abdominal walls male BALB/c mice, 6-8 weeks old, which had been anesthetized. A mixture of 100 μL Matrigel™ 20 ng VEGF, 1×10^5 HCT116 or HCT116 cells, and 1 μmol compound 75 was inserted into the tissues inside the window which was then covered with a cover slip and fixed with a snap ring. Four days later, 50 μL of 25 mg/mL fluorescein isothiocyanate-labeled dextran (Mw 250,000 Sigma) was injected via the tail vein to examine angiogenesis. Mice were then placed on a Zeiss Axiovert™ 200M microscope with a filter set (440-475 nm, excitation wavelength; 530-550 nm, emission wavelength). Fluorescence images were recorded in each window by an electron-multiplying CCD camera (Photon Max™ 521, Princeton Instruments) and digitized for subsequent off-line analysis using the MetaMorph™ program (Universal Imaging). The angiogenesis was scored from 0 (least positive) to 5 (most positive). Observations and degree of angiogenesis are shown in FIGS. 4A and 4B, respectively. […] Accordingly, the compound of the present invention was identified to inhibit angiogenesis in vivo.

Molecule | IC50 ([1]; Homo sapiens) | other results
CO/C=C(/C(=O)OC)c1ccccc1COc1cccc(/C=N/OCCOc2ccccc2)c1 [Compound 75, (E)-methyl 2-(2-((3-((E)-(2-phenoxyethoxyimino)methyl)phenoxy)-methyl)phenyl)-3-methoxyacrylate] | 150 nM | degree of angiogenesis (score 0 to 5) versus HCT-116 group [2]: significant difference
CCO/N=C(\C)c1cc(C)c(OCc2ccccc2/C(=C\OC)C(=O)OC)cc1C [Compound 78, (E)-methyl 2-(2-((2,5-dimethyl-4-((E)-1-(ethoxyimino)ethyl)phenoxy)-methyl)phenyl)-3-methoxyacrylate] | 20 nM | 
CO/C=C(/C(=O)OC)c1ccccc1COc1cc(/C(C)=N/O)ccc1OC [Compound 37, (E)-methyl 2-(2-((5-((E)-1-(hydroxyimino)ethyl)-2-methoxyphenoxy)-methyl)phenyl)-3-methoxyacrylate] | 7220 nM | 
CO/C=C(/C(=O)OC)c1ccccc1COc1ccc(/C(C)=N/OCCN2CCCCC2)cc1 [Compound 9, (E)-methyl 2-(2-((4-((E)-1-(2-(piperidin-1-yl)ethoxyimino)ethyl)phenoxy)-methyl)phenyl)-3-methoxyacrylate] | 6410 nM | 
CO/C=C(/C(=O)OC)c1ccccc1COc1cc(C)c(/C=N/Oc2ccccc2)cc1C [Compound 63, (E)-methyl 2-(2-((2,5-dimethyl-4-((E)-(phenoxyimino)methyl)phenoxy)-methyl)phenyl)-3-methoxyacrylate] | 40 nM | 
CO/C=C(/C(=O)OC)c1ccccc1COc1cc(/C=N/OCc2ccccc2)ccc1OC [Compound 39, (E)-methyl 2-(2-((5-((E)-(benzyloxyimino)methyl)-2-methoxyphenoxy)-methyl)phenyl)-3-methoxyacrylate] | 1410 nM | 
CO/C=C(/C(=O)OC)c1ccccc1COc1cccc(/C=N/N2CCOCC2)c1 [Compound 25, (E)-methyl 3-methoxy-2-(2-((3-((E)-(morpholinoimino)methyl)phenoxy)-methyl)phenyl)acrylate] | 440 nM | 
CO/C=C(/C(=O)OC)c1ccccc1COc1cc(/C(C)=N/OCc2ccccc2)ccc1OC [Compound 38, (E)-methyl 2-(2-((5-((E)-1-(benzyloxyimino)ethyl)-2-methoxyphenoxy)-methyl)phenyl)-3-methoxyacrylate] | 1670 nM | 
CCCO/N=C/c1ccc(OCc2ccccc2/C(=C\OC)C(=O)OC)c(C)c1 [Compound 32, (E)-methyl 2-(2-((2-methyl-4-((E)-(propoxyimino)methyl)phenoxy)-methyl)phenyl)-3-methoxyacrylate] | 20 nM | 
CO/C=C(/C(=O)OC)c1ccccc1COc1cc(C)c(/C(C)=N/OCc2ccccn2)cc1C [Compound 79, (E)-methyl 2-(2-((2,5-dimethyl-4-((E)-1-(pyridin-2-ylmethoxyimino)-ethyl)phenoxy)methyl)phenyl)-3-methoxyacrylate] | 61 nM | 
CO/C=C(/C(=O)OC)c1ccccc1COc1cc(C)c(/C(C)=N/OC)cc1C [Compound 77, (E)-methyl 2-(2-((2,5-dimethyl-4-((E)-1-(methoxyimino)ethyl)phenoxy)-methyl)phenyl)-3-methoxyacrylate] | 20 nM | 
CO/C=C(/C(=O)OC)c1ccccc1COc1ccc(/C=N/O)cc1C [Compound 31, (E)-methyl 2-(2-((4-((E)-(hydroxyimino)methyl)-2-methylphenoxy)-methyl)phenyl)-3-methoxyacrylate] | 1730 nM | 
CO/C=C(/C(=O)OC)c1ccccc1COc1c(F)cc(/C=N/OCc2ccccc2)cc1OC [Compound 61, (E)-methyl 2-(2-((4-((E)-(benzyloxyimino)methyl)-2-fluoro-6-methoxyphenoxy)methyl)phenyl)-3-methoxyacrylate] | 5540 nM | 
CO/C=C(/C(=O)OC)c1ccccc1COc1cc(C)c(/C=N/OCCN2CCCC2)cc1C [Compound 53, (E)-methyl 2-(2-((2,5-dimethyl-4-((E)-(2-(pyrrolidin-1-yl)ethoxyimino)-methyl)phenoxy)methyl)phenyl)-3-methoxyacrylate] | 6640 nM | 
CO/C=C(/C(=O)OC)c1ccccc1COc1ccc(F)cc1 [Compound 19, (E)-methyl 2-(2-((4-fluorophenoxy)methyl)phenyl)-3-methoxyacrylate] | 920 nM | 
(E)-methyl 2-(2-((3-hydroxy-5-(2-phenoxyethoxy)phenoxy)methyl)-phenyl)-3-methoxyacrylate [Compound 20] |  | IC50 [1]: 6060 nM
CO/C=C(/C(=O)OC)c1ccccc1COc1cc(/C(C)=N/OCc2ccc(C)cc2)ccc1OC [Compound 57, (E)-methyl 2-(2-((2-methoxy-5-((E)-1-(4-methylbenzyloxyimino)ethyl)-phenoxy)methyl)phenyl)-3-methoxyacrylate] | 3940 nM | 
CO/C=C(/C(=O)OC)c1ccccc1COc1ccc(/C=N/OC2CCCC2)cc1C [Compound 70, (E)-methyl 2-(2-((4-((E)-(cyclopentyloxyimino)methyl)-2-methylphenoxy)methyl)phenyl)-3-methoxyacrylate] | 180 nM | 
CO/C=C(/C(=O)OC)c1ccccc1COc1cc(C)c(/C=N/OCCCOc2ccccc2)cc1C [Compound 71, (E)-methyl 2-(2-((2,5-dimethyl-4-((E)-(3-phenoxypropyloxyimino)-methyl)phenoxy)methyl)phenyl)-3-methoxyacrylate] | 20 nM | 
CO/C=C(/C(=O)OC)c1ccccc1COc1c(F)cc(/C=N/OCCc2ccccc2)cc1OC [Compound 66, (E)-methyl 2-(2-((2-fluoro-6-methoxy-4-((E)-(phenethoxyimino)methyl)-phenoxy)methyl)phenyl)-3-methoxyacrylate] | 900 nM | 
CCCOc1c(F)ccc(OCc2ccccc2/C(=C\OC)C(=O)OC)c1F [Compound 65, (E)-methyl 2-(2-((2,4-difluoro-3-propoxyphenoxy)methyl)phenyl)-3-methoxyacrylate] | 1000 nM | 
